In patent EP0831811B1, “CARBAZOLES FOR TREATING MICROBIAL INFECTIONS” (priority 1995, dated 1996):
Where a name gives a salt, the structure may show the parent alone.

What was measured:
[1] = system: Pneumocystis carinii; assay: Rat model of P. carinii pneumonia (PCP): cysts per gram of lung; type: in vivo; settings: for response vs control in vivo at 5 mg/kg: immunosuppressed rats, dose 5.0 mg/kg iv once daily for 14 days, means ± SEM, percent of saline-treated controls; for anti-P. carinii activity (in words): rat model, carbazoles tested at one half the dose of pentamidine
Description: (§1) The activity of the compounds against P. carinii was carried out according to an established method. See Tidwell, R. R., et al., J. Med. Chem. 33, 1252-1257 (1990); Jones, S. K., et al., Antimicrob. Agents Chemother. 34, 1026-1030 (1990); Tidwell, R.R., et al., Antimicrob. Agents Chemother. 37, 1713-1716 (1993). The induction and treatment of P. carinii pneumonia (PCP) was carried out with only minor alterations to published methods. See Frenkel, J.K. et al., Lab. Invest. 15, 1559 (1966); Hughes, W.T. et al., Antimicrob. Agents Chemother. 5, 289 (1974). Briefly, male Sprague-Dawley rats (barrier raised, not certified virus-free) weighing 150-200g each, were obtained (Hilltop Laboratories, Scottsdale, PA). Immediately upon arrival, the animals were caged individually and begun on a low protein (8%) diet and on drinking water containing tetracycline (0.5 mg/mL) and dexamethasone ([…]). This regimen was continued for eight weeks. At the beginning of the seventh week, animals were divided into groups of 8 or more, and the test compounds were administered for 14 days by single daily IV injection. Generally, the daily dose was 5 mg/kg of body weight and was dissolved in 0.4 mL of saline. Saline- and pentamidine-treated groups were included as controls.
Animals were sacrificed at the end of the eighth week by chloroform inhalation. The right lung was inflated in situ with 10% formalin and fixed for histological examination. The lung tissue was sectioned in the long axis and exposed to the GMS stain, which selectively identified the walls of the P. carinii cysts.
The left lung was weighed, ground through a No. 60 wire mesh screen, and suspended 1:10 (wt/vol) in 10 mM β-mercaptoethanol-Hanks' balanced salts solution (HBSS) without cations. Slides were prepared by spotting 5 µL of lung homogenate diluted 1:10 in HBSS with β-mercaptoethanol and allowed to air dry. The slides were stained with cresyl violet, and the cysts were counted by a blinded protocol. The number of cysts per gram of original lung tissue was calculated, and the groups were reported as the percentages of saline-treated controls.
Anti-P. carinii activity is measured by the reduction in the number of cysts per gram of lung tissue for treated animals as compared to untreated controls. The anti-P. carinii value for each compound is expressed as the percent of cysts in the treatment group as compared to the control group. […] It should be noted that compound 3 was tested at one half the dose of pentamidine as were all of the carbazoles.

[2] = Toxicity seen in the rat PCP treatment study; set-up: species or system Sprague-Dawley rats; settings: in vivo, iv, 5 mg/kg
Description: as §1

[3] = system: Calf thymus DNA; assay: DNA binding by thermal melting (ΔTm); settings: for DNA binding calf thymus ΔTm(°C): absorbance at 259 nm, heated at 18°C/h, average of at least two determinations
Description: DNA binding potency was determined for each of the compounds because previous work had determined that the binding of dicationic molecules to DNA is a prerequisite for their antimicrobial activity. See e.g., Tidwell, R.R., et al., Antimicrob. Agents Chemother. 37, 1713-1716 (1993); Bell, C. A., et al., Antimicrob. Agents Chemother. 35, 1099-1107 (1991). The DNA binding of the compounds was determined by the change in melting of the DNA bound to the experimental compounds. The method is well documented and is a considered a standard method for determining DNA binding strength. See Cory, M.. et al., J. Med. Chem. 25, 431-438 (1992). In brief, a UV-visible light spectrophotometer with a cuvette changer was interfaced to a microcomputer that recorded the cuvette temperature and DNA-absorbance data at 259 nm as the sample was heated at a rate of 18°C/h. Calf thymus DNA was used at an initial absorbance of 0.3A259. The midpoint of each denaturation curve was determined after graphic selection on the computer of the starting and ending absorbance temperature for each curve of each experiment. DNA or DNA bound to experimental compound was run in each experiment and the ΔTms were determined from the polynucleotide Tm for that experiment. […] The data reported in Table 1 represent the average of at least two determinations of ΔTm.

[4] = system: Cryptosporidium parvum; assay: Neonatal mouse model of Cryptosporidium parvum infection: oocysts in the bowel; type: in vivo; settings: for Efficacy: C. parvum
Description: Besides the potency shown by this compound against P. carinii infection in the rat model, the compound was also effective in a neonatal mouse model of Cryptosporidium parvum infection. This model has been described in detail in previous reports. See Blagburn, B. L.; et al., Antimicrob. Agents Chemother. 35, 1520-1523 (1991). The compound's activity against C. parvum is measured by a reduction in the number of oocysts detected in the bowel of treated mice compared to untreated controls.

[5] = system: C. albicans; assay: Broth dilution antifungal susceptibility test (NCCLS M27-P), MIC and MFC; type: cell-based
Description: (§2) Activity of the compound was assessed using a standard in vitro fungal cell growth inhibition assay (the broth dilution antifungal susceptibility testing of yeast, proposed standard document M27-P, validated by the National Committee for Clinical Laboratory Standards, 1992). Briefly, this broth dilution procedure uses PMI media, and an inoculum of […] with media alone. After the minimal inhibitor concentration was determined by the above procedure, tubes with no visible growth were subcultured to determine the minimum fungicidal concentration by using criteria of less than 0.01% survival of original inoculum. Two organisms were tested: (1) H99, a clinical isolate of C. neoformans which is fully susceptible to azoles and polyenes in vitro and in vivo; and (2) A39, a clinical isolate of C. albicans which is fully susceptible to azoles and polyenes.
(§3) The MFC's (minimum fungicidal concentration) for compound 9 against these two important AIDS-associated fungal infections are shown in Table 2.

[6] = system: Cryptococcus neoformans; assay: as above; type: cell-based
Description: as §2, §3

[7] = Pneumocystis carinii, 336 h, read-out: in vivo activity against PCP cysts/g lung % control
[8] = in vitro fungal cell growth inhibition

SMILES	response vs control in vivo at 5 mg/kg [1, 7] [%]	toxicity [2]	DNA binding calf thymus ΔTm(°C) [3] [°C]	further results
Cl.Cl.N=C(N)c1ccc2[nH]c3ccc(C(=N)N)cc3c2c1 [Compound 1, 3,6-diamidinocarbazole dihydrochloride]	0.8 ± 0.36	0	17.2	–
CC(C)N=C(N)c1ccc2[nH]c3ccc(C(N)=NC(C)C)cc3c2c1 [Compound 2, 3,6-diisopropylamidinocarbazole dihydrochloride]	0.11 ± 0.08	0	–	–
c1cc2[nH]c3ccc(C4=NCCN4)cc3c2cc1C1=NCCN1 [Compound 3, 3,6-bis(2-imidazolinyl)carbazole dihydrochloride]	0.06 ± 0.02	0	–	–
Cn1c2ccc(C3=NCCN3)cc2c2cc(C3=NCCN3)ccc21 [Compound 4, 3,6-bis(2-imidazolinyl)-9-methylcarbazole dihydrochloride]	0.17 ± 0.11	–	–	–
c1cc2c(cc1C1=NCCN1)c1cc(C3=NCCN3)ccc1n2CC1CCCCC1 [Compound 5, 9-cyclohexylmethyl-3,6-bis(2-imidazolinyl)carbazole dihydrochloride]	35.8 ± 4.87	0	–	–
Cn1c2ccc(C3=NCCCN3)cc2c2cc(C3=NCCCN3)ccc21 [Compound 6, 3,6-bis[2-(1,4,5,6-tetrahydropyrimidinyl)]-9-methylcarbazole dihydrochloride]	0.14 ± 0.05	–	13.6	–
c1cc2c(cc1C1=NCCCN1)c1cc(C3=NCCCN3)ccc1n2CC1CCCCC1 [Compound 7, 3,6-bis[2-(1,4,5,6-tetrahydropyrimidinyl)]-9-cyclohexylmethylcarbazole dihydrochloride]	4.1 ± 1.59	–	7.3	anti-P. carinii activity (in words) [1]: failed to exhibit anti-P. carinii significantly more potent than the control drug, pentamidine
c1cc2[nH]c(-c3ccc4[nH]c5ccc(-c6nc7cc(C8=NCCN8)ccc7[nH]6)cc5c4c3)nc2cc1C1=NCCN1 [Compound 8, 3,6-bis[2-imidazolinyl)-2-benzimidazoyl]carbazole tetrahydrochloride]	61.9 ± 14.5	0	22.2	anti-P. carinii activity (in words) [1]: failed to exhibit anti-P. carinii significantly more potent than the control drug, pentamidine; anti-P. carinii activity (in words) ([1]; listed as compound 8): only moderate activity; DNA binding (in words) [3]: highly potent as a DNA binding agent
Cl.Cl.N=C(N)c1ccc2c(c1)[nH]c1cc(C(=N)N)ccc12 [Compound 9, 2,7-diamidinocarbazole dihydrochloride]	0.17 ± 0.06	0	19.0	activity against C. parvum (in words) [4]: effective; Efficacy ([4]; 14.6 µmol/kg oral): 6.1 % control; Efficacy ([4]; 29.3 µmol/kg oral): 0.30% control; Efficacy ([4]; 58.6 µmol/kg oral): 0.89 % control; MIC ([5]; Candida albicans, in vitro, A39 clinical isolate of C. albicans): 0.78 mg/L; MFC ([5]; Candida albicans, in vitro, A39 clinical isolate of C. albicans, less than 0.01% survival of original inoculum): 1.56 mg/L; activity in vitro (in words) [5, 8]: highly active; MIC ([6]; Cryptococcus neoformans, in vitro, H99 clinical isolate of C. neoformans): 6.25 mg/L; MFC ([6]; Cryptococcus neoformans, in vitro, H99 clinical isolate of C. neoformans, less than 0.01% survival of original inoculum): 50 mg/L; activity in vitro (in words) [6, 8]: highly active
c1cc2c(cc1C1=NCCN1)[nH]c1cc(C3=NCCN3)ccc12 [Compound 10, 2,7-bis(2-imidazolinyl)carbazole dihydrochloride]	0.5 ± 0.33	0	–	–
N=C(N)c1ccc(OCCCCCOc2ccc(C(=N)N)cc2)cc1 [pentamidine, reference compound]	–	–	10.7	response vs control in vivo at 10 mg/kg ([1]; Pneumocystis carinii, iv, 336 h, read-out: in vivo activity against PCP cysts/g lung % control): 1.84 ± 0.82%
